Measurements as given in ChEMBL document CHEMBL1201862, “PubChem BioAssay data set” (2004).
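All cell lines were grown in 96-well plates and treated with compound for 48 hours. Here, GI50 denotes the concentration required for 50% inhibition of growth.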 Calls of active or inactive are those of the source. No stated cut-off is given here; in the data, active = GI50 up to about 1.1 µM and inactive = higher.

Tests used:
Assay in all cases: growth of human tumour cells (NCI), 48 h
CAKI-1 = test system: CAKI-1
SF-295 = test system: SF-295
COLO 205 = test system: COLO 205
IGROV-1 = test system: IGROV-1
786-0 = test system: 786-0
NCI-H522 = test system: NCI-H522
HOP-62 = test system: HOP-62
HCC 2998 = test system: HCC 2998
ACHN = test system: ACHN
SK-MEL-2 = test system: SK-MEL-2
HCT-15 = test system: HCT-15
NCI/ADR-RES = test system: NCI/ADR-RES
SK-OV-3 = test system: SK-OV-3
Hs-578T = test system: Hs-578T
U-251 = test system: U-251
PC-3 = test system: PC-3
SW-620 = test system: SW-620
MOLT-4 = test system: MOLT-4
T47D = test system: T47D
A498 = test system: A498
OVCAR-8 = test system: OVCAR-8
SK-MEL-5 = test system: SK-MEL-5
SF-539 = test system: SF-539
SF-268 = test system: SF-268
TK-10 = test system: TK-10
HT-29 = test system: HT-29
NCI-H460 = test system: NCI-H460
UACC-257 = test system: UACC-257
OVCAR-3 = test system: OVCAR-3
SNB-75 = test system: SNB-75
MCF7 = test system: MCF7
A549 = test system: A549
BT-549 = test system: BT-549
UO-31 = test system: UO-31
HCT-116 = test system: HCT-116
K562 = test system: K562
OVCAR-5 = test system: OVCAR-5
M14 = test system: M14
NCI-H23 = test system: NCI-H23
MDA-MB-231 = test system: MDA-MB-231
SN12C = test system: SN12C
MDA-N = test system: MDA-N
SR = test system: SR
HL-60 = test system: HL-60
DU-145 = test system: DU-145
EKVX = test system: EKVX
UACC-62 = test system: UACC-62
KM12 = test system: KM12
CCRF-CEM = test system: CCRF-CEM
SK-MEL-28 = test system: SK-MEL-28
NCI-H226 = test system: NCI-H226
OVCAR-4 = test system: OVCAR-4
SNB-19 = test system: SNB-19
RPMI-8226 = test system: RPMI-8226
Malme-3M = test system: Malme-3M
MDA-MB-435 = test system: MDA-MB-435
HOP-92 = test system: HOP-92
RXF 393 = test system: RXF 393
LOX IMVI = test system: LOX IMVI

C/N=C1\OC2=C3C(c4ccccc4)(O/C(=N/C)N(C)C3(c3ccccc3)OC2=O)N1C (stereo not drawn)
GI50 (CAKI-1): > 100 µM (inactive)
GI50 (SF-295): > 100 µM (inactive)
GI50 (COLO 205): > 100 µM (inactive)
GI50 (IGROV-1): > 100 µM (inactive)
GI50 (786-0): > 100 µM (inactive)
GI50 (NCI-H522): > 100 µM (inactive)
GI50 (HOP-62): > 100 µM (inactive)
GI50 (HCC 2998): > 100 µM (inactive)
GI50 (ACHN): > 100 µM (inactive)
GI50 (SK-MEL-2): 23.7 µM (inactive)
GI50 (HCT-15): > 100 µM
GI50 (NCI/ADR-RES): > 100 µM (inactive)
GI50 (SK-OV-3): > 100 µM (inactive)
GI50 (Hs-578T): > 100 µM (inactive)
GI50 (U-251): > 100 µM (inactive)
GI50 (PC-3): > 100 µM (inactive)
GI50 (SW-620): > 100 µM (inactive)
GI50 (MOLT-4): > 100 µM (inactive)
GI50 (T47D): > 100 µM (inactive)
GI50 (A498): > 100 µM (inactive)
GI50 (OVCAR-8): > 100 µM (inactive)
GI50 (SK-MEL-5): > 100 µM (inactive)
GI50 (SF-539): > 100 µM (inactive)
GI50 (SF-268): > 100 µM (inactive)
GI50 (TK-10): > 100 µM (inactive)
GI50 (HT-29): > 100 µM (inactive)
GI50 (NCI-H460): > 100 µM (inactive)
GI50 (UACC-257): > 100 µM (inactive)
GI50 (OVCAR-3): > 100 µM (inactive)
GI50 (SNB-75): 71.4 µM (inactive)
GI50 (MCF7): > 100 µM (inactive)
GI50 (A549): > 100 µM (inactive)
GI50 (BT-549): > 100 µM (inactive)
GI50 (UO-31): > 10 µM (inactive)
GI50 (HCT-116): > 100 µM (inactive)
GI50 (K562): > 100 µM (inactive)
GI50 (OVCAR-5): > 100 µM (inactive)
GI50 (M14): > 100 µM (inactive)
GI50 (NCI-H23): > 100 µM (inactive)
GI50 (MDA-MB-231): > 100 µM (inactive)
GI50 (SN12C): > 100 µM (inactive)
GI50 (MDA-N): > 100 µM (inactive)
GI50 (SR): > 100 µM (inactive)
GI50 (HL-60): > 100 µM (inactive)
GI50 (DU-145): > 100 µM (inactive)
GI50 (EKVX): > 100 µM (inactive)
GI50 (UACC-62): > 100 µM (inactive)
GI50 (KM12): > 100 µM (inactive)
GI50 (CCRF-CEM): > 100 µM (inactive)
GI50 (SK-MEL-28): > 100 µM (inactive)
GI50 (NCI-H226): > 100 µM (inactive)
GI50 (OVCAR-4): > 100 µM (inactive)
GI50 (SNB-19): > 100 µM (inactive)

N#Cc1sc2c(c1O)c(=O)n(-c1ccccc1)c(=S)n2-c1ccccc1
GI50 (SF-295): > 100 µM (inactive)
GI50 (COLO 205): > 100 µM (inactive)
GI50 (IGROV-1): > 100 µM (inactive)
GI50 (786-0): > 100 µM (inactive)
GI50 (NCI-H522): > 100 µM (inactive)
GI50 (HCC 2998): > 100 µM (inactive)
GI50 (RPMI-8226): > 100 µM (inactive)
GI50 (ACHN): > 100 µM (inactive)
GI50 (SK-MEL-2): > 100 µM (inactive)
GI50 (HCT-15): > 100 µM
GI50 (Hs-578T): > 100 µM (inactive)
GI50 (U-251): > 100 µM (inactive)
GI50 (SW-620): > 100 µM (inactive)
GI50 (T47D): > 100 µM (inactive)
GI50 (OVCAR-8): > 100 µM (inactive)
GI50 (SK-MEL-5): > 100 µM (inactive)
GI50 (SF-268): > 100 µM (inactive)
GI50 (TK-10): > 100 µM (inactive)
GI50 (Malme-3M): > 100 µM (inactive)
GI50 (HT-29): > 100 µM (inactive)
GI50 (NCI-H460): > 100 µM (inactive)
GI50 (UACC-257): > 100 µM (inactive)
GI50 (OVCAR-3): > 100 µM (inactive)
GI50 (SNB-75): > 100 µM (inactive)
GI50 (MCF7): > 100 µM (inactive)
GI50 (MDA-MB-435): > 100 µM (inactive)
GI50 (A549): > 100 µM (inactive)
GI50 (BT-549): > 100 µM (inactive)
GI50 (UO-31): > 100 µM (inactive)
GI50 (K562): 89.1 µM (inactive)
GI50 (OVCAR-5): > 100 µM (inactive)
GI50 (M14): > 100 µM (inactive)
GI50 (NCI-H23): > 100 µM (inactive)
GI50 (MDA-MB-231): > 100 µM (inactive)
GI50 (SN12C): > 100 µM (inactive)
GI50 (MDA-N): > 100 µM (inactive)
GI50 (SR): > 100 µM (inactive)
GI50 (HOP-92): > 100 µM (inactive)
GI50 (RXF 393): > 100 µM (inactive)
GI50 (HL-60): > 100 µM (inactive)
GI50 (DU-145): > 100 µM (inactive)
GI50 (UACC-62): > 100 µM (inactive)
GI50 (LOX IMVI): > 100 µM (inactive)
GI50 (KM12): > 100 µM (inactive)
GI50 (CCRF-CEM): > 10 µM (inactive)
GI50 (SK-MEL-28): > 100 µM (inactive)
GI50 (NCI-H226): > 100 µM (inactive)
GI50 (OVCAR-4): > 100 µM (inactive)
GI50 (SNB-19): > 100 µM (inactive)

CCCCc1ccc(Nc2nc3ncnc-3c[nH]2)cc1
GI50 (CAKI-1): 19.4 µM (inactive)
GI50 (SF-295): 18.2 µM (inactive)
GI50 (COLO 205): 16.7 µM (inactive)
GI50 (IGROV-1): 17.3 µM (inactive)
GI50 (786-0): 25.6 µM (inactive)
GI50 (NCI-H522): 21.6 µM (inactive)
GI50 (HOP-62): 17.7 µM (inactive)
GI50 (HCC 2998): 16.8 µM (inactive)
GI50 (RPMI-8226): 14.8 µM (inactive)
GI50 (ACHN): 15.2 µM (inactive)
GI50 (SK-MEL-2): 20.2 µM (inactive)
GI50 (HCT-15): 17.5 µM
GI50 (NCI/ADR-RES): 18.3 µM (inactive)
GI50 (SK-OV-3): 18.4 µM (inactive)
GI50 (Hs-578T): 5.52 µM (inactive)
GI50 (U-251): 22.1 µM (inactive)
GI50 (SW-620): 20.4 µM (inactive)
GI50 (MOLT-4): 14.3 µM (inactive)
GI50 (T47D): 19.1 µM (inactive)
GI50 (A498): 26.1 µM (inactive)
GI50 (OVCAR-8): 17.8 µM (inactive)
GI50 (SK-MEL-5): 16.6 µM (inactive)
GI50 (SF-539): 26.7 µM (inactive)
GI50 (SF-268): 16.3 µM (inactive)
GI50 (TK-10): 17 µM (inactive)
GI50 (Malme-3M): 19.6 µM (inactive)
GI50 (HT-29): 21 µM (inactive)
GI50 (UACC-257): 21.2 µM (inactive)
GI50 (OVCAR-3): 14.2 µM (inactive)
GI50 (SNB-75): 14.6 µM (inactive)
GI50 (MCF7): 29.6 µM (inactive)
GI50 (MDA-MB-435): 33.7 µM (inactive)
GI50 (A549): 21.7 µM (inactive)
GI50 (BT-549): 25.7 µM (inactive)
GI50 (UO-31): 12.5 µM (inactive)
GI50 (HCT-116): 20.2 µM (inactive)
GI50 (K562): 33.3 µM (inactive)
GI50 (OVCAR-5): 37.2 µM (inactive)
GI50 (M14): 18.6 µM (inactive)
GI50 (NCI-H23): 18.2 µM (inactive)
GI50 (MDA-MB-231): 12.8 µM (inactive)
GI50 (SN12C): 18.8 µM (inactive)
GI50 (MDA-N): 32.8 µM (inactive)
GI50 (SR): > 10 µM (inactive)
GI50 (HOP-92): 21.8 µM (inactive)
GI50 (RXF 393): 18.5 µM (inactive)
GI50 (HL-60): 38.5 µM (inactive)
GI50 (DU-145): 15.9 µM (inactive)
GI50 (EKVX): 25.8 µM (inactive)
GI50 (UACC-62): 21 µM (inactive)
GI50 (LOX IMVI): 20.5 µM (inactive)
GI50 (KM12): 19.4 µM (inactive)
GI50 (CCRF-CEM): 7.94 µM (inactive)
GI50 (NCI-H226): 15.9 µM (inactive)
GI50 (OVCAR-4): 25.3 µM (inactive)
GI50 (SNB-19): 18.2 µM (inactive)
